Assay results reported in patent US9718788B2, “Heteroaryl compounds useful as inhibitors of E1 activating enzymes” (MILLENNIUM PHARMACEUTICALS, INC., priority 2006, dated 2017).

Target: T1, recombinant human NAE enzyme (Homo sapiens, UniProt Q8TBC4)
T1 construct: His (N); made in house; host or cells: Sf9 insect cells (baculovirus, Bac-to-Bac)
T1 sequence (Q8TBC4 1-463): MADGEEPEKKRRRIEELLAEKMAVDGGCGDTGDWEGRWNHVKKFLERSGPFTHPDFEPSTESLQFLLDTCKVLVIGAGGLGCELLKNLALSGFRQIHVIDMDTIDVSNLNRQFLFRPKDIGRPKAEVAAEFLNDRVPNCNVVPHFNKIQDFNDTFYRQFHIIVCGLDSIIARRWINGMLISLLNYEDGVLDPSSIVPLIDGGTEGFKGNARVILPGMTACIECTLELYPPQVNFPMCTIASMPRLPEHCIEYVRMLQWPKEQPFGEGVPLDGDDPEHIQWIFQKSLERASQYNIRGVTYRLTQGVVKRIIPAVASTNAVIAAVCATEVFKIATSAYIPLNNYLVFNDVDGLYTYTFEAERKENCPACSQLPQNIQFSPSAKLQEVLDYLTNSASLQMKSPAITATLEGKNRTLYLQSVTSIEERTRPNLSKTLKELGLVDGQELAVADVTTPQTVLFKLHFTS
T1 sequence (Q13564 1-534 partner): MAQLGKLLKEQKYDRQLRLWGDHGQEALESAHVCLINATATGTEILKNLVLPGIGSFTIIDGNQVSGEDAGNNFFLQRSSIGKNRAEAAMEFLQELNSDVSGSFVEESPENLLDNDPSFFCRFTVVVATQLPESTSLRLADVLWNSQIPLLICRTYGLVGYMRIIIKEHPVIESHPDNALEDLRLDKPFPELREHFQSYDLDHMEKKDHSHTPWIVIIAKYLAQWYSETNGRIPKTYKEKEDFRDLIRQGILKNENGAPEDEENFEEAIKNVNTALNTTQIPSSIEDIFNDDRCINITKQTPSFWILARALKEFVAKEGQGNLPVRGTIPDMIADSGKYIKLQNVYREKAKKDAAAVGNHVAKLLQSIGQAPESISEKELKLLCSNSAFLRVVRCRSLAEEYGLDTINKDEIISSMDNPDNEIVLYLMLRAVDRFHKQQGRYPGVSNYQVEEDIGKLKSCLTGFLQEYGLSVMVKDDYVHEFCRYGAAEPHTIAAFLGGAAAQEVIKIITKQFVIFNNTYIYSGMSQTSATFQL
Assay: Nedd8-Activating Enzyme (NAE) HTRF Assay
Assay type: biochemical
Details: 20 μM ATP
Method: Following manufacturer instructions, baculoviruses were generated with the Bac-to-Bac Expression System (Invitrogen) for the following proteins: untagged NAEα (APPBP1; NP_003896.1), N-terminally His-tagged NAEJ (UBE1C; NP_003959.3), untagged SAEα (SAE1; NP_005491.1), N-terminally His-tagged SAE3 (UBA2; NP_005490.1), N-terminally His-tagged murine UAE (UBE1X; NP_033483). NAEα/His-NAEβ and SAEα/His-SAEβ complexes were generated by co-infection of Sf9 cells, which were harvested after 48 hours. His-mUAE was generated by single infection of Sf9 cells and harvested after 72 hours. Expressed proteins were purified by affinity chromatography (Ni-NTA agarose, Qiagen) using standard buffers. Nedd8-Activating Enzyme (NAE) HTRF Assay. The NAE enzymatic reaction totaled 50 μL and contained 50 mM HEPES (pH 7.5), 0.05% BSA, 5 mM MgCl2, 20 μM ATP, 250 μM GSH, 0.01 μM Ubc12-GST, 0.075 μM Nedd8-Flag and 0.20 nM recombinant human NAE enzyme. The enzymatic reaction mixture, with and without compound inhibitor, was incubated at room temperature 24° C. for 105 minutes in a 384-well plate before termination with 25 μL of Stop/Detection buffer (0.1M HEPES pH 7.5, 0.05% Tween20, 20 mM EDTA, 410 mM KF, 0.53 nM Europium-Cryptate labeled monoclonal anti-FLAG M2 antibody (CisBio International) and 8.125 μg/mL PHYCOLINK goat anti-GST allophycocyanin (XL-APC) antibody (Prozyme)). After incubation for 1 hour at 24° C., quantification of the FRET was performed on the Analyst™ HT 96.384 (Molecular Devices).

SMILES	IC50 (bound given in μM) [µM]	IC50 (bound given in nM) [µM]
NS(=O)(=O)OC[C@H]1C[C@@H](NC(=O)c2ccccn2)[C@H](O)[C@@H]1O [Compound I-23, {(1R,2R,3S,4R)-2,3-dihydroxy-4-[(pyridin-2-ylcarbonyl)amino]cyclopentyl}-methyl sulfamate]	> 10	
NS(=O)(=O)OC[C@H]1C[C@@H](Nc2cc(N[C@H]3CCc4c(Cl)cccc43)ncn2)[C@H](O)[C@@H]1O [Compound I-24, {(1R,2R,3S,4R)-4-[(6-{[(1S)-4-chloro-2,3-dihydro-1H-inden-1-yl]amino}-pyrimidin-4-yl)-amino]-2,3-dihydroxycyclopentyl}methyl sulfamate]		≤ 0.5
NS(=O)(=O)OC[C@H]1C[C@@H](Nc2cc(N[C@H]3CCc4ccccc43)ncn2)C[C@@H]1O [Compound I-25, [(1R,2S,4R)-4-({6-[(1S)-2,3-dihydro-1H-inden-1-ylamino]pyrimidin-4-yl}amino)-2-hydroxycyclopentyl]methyl sulfamate]		≤ 0.5
NS(=O)(=O)OC[C@H]1C[C@@H](Nc2ncnc(N[C@H]3CCc4ccccc43)n2)[C@H](O)[C@@H]1O [Compound I-26, [(1R,2R,3S,4R)-4-({4-[(1S)-2,3-dihydro-1H-inden-1-ylamino]-1,3,5-triazin-2-yl}-amino)-2,3-dihydroxycyclopentyl]methyl sulfamate]		≤ 0.5
NS(=O)(=O)OC[C@H]1C[C@@H](Nc2cc(NCc3ccccc3)ncn2)[C@H](O)[C@@H]1O [Compound I-27, ((1R,2R,3S,4R)-4-{[6-(benzylamino)pyrimidin-4-yl]amino}-2,3-dihydroxycyclopentyl)-methyl sulfamate]		≤ 0.5
NS(=O)(=O)OC[C@H]1C[C@@H](NC(=O)c2ccncc2)[C@H](O)[C@@H]1O [Compound I-28, [(1R,2R,3S,4R)-2,3-dihydroxy-4-(isonicotinoylamino)cyclopentyl]methyl sulfamate]	< 10	> 0.5
NS(=O)(=O)OC[C@H]1C[C@@H](Nc2cc(N[C@H]3CCc4ccccc43)ncn2)[C@H](O)[C@@H]1O [Compound I-29, [(1R,2R,3S,4R)-4-({6-[(1S)-2,3-dihydro-1H-inden-1-ylamino]pyrimidin-4-yl}-amino)-2,3-dihydroxycyclopentyl]methyl sulfamate]		≤ 0.5
Cc1nc(NCc2ccccc2)cc(N[C@@H]2C[C@H](COS(N)(=O)=O)[C@@H](O)[C@H]2O)n1 [Compound I-30, ((1R,2R,3S,4R)-4-{[6-(benzylamino)-2-methylpyrimidin-4-yl]amino}-2,3-dihydroxycyclopentyl)methyl sulfamate]	> 10	
NS(=O)(=O)OC[C@@H]1C[C@@H](Oc2cc(N[C@H]3CCc4ccccc43)ncn2)C[C@@H]1O [Compound I-31, [(1S,2S,4R)-4-({6-[(1S)-2,3-Dihydro-1H-inden-1-ylamino]pyrimidin-4-yl}oxy)-2-hydroxycyclopentyl]methyl sulfamate]	> 10	
Cc1c(N[C@H]2CCc3ccccc32)ncnc1O[C@@H]1C[C@@H](COS(N)(=O)=O)[C@@H](O)C1 [Compound I-32, [(1S,2S,4R)-4-({6-[(1S)-2,3-dihydro-1H-inden-1-ylamino]-5-methylpyrimidin-4-yl}oxy)-2-hydroxycyclopentyl]methyl sulfamate]		≤ 0.5
NS(=O)(=O)OC[C@@H]1C[C@@H](Cc2cc(N[C@H]3CCc4ccccc43)ncn2)C[C@@H]1O [Compound I-33, [(1S,2S,4S)-4-({6-[(1S)-2,3-dihydro-1H-inden-1-ylamino]pyrimidin-4-yl}methyl)-2-hydroxycyclopentyl]methyl sulfamate]	< 10	> 0.5
NS(=O)(=O)OC[C@@H]1C[C@@H](Nc2ncnc3[nH]c(-c4ccccc4Cl)nc23)C[C@@H]1O [Compound I-34, ((1S,2S,4R)-4-{[8-(2-chlorophenyl)-9H-purin-6-yl]amino}-2-hydroxycyclopentyl)methyl sulfamate]		≤ 0.5
CC1(C)C[C@H](Nc2cc(O[C@@H]3C[C@@H](COS(N)(=O)=O)[C@@H](O)C3)ccn2)c2ccc(Cl)cc21 [Compound I-35, {(1S,2S,4R)-4-[(2-{[(1S)-5-chloro-3,3-dimethyl-2,3-dihydro-1H-inden-1-yl]-amino}-pyridin-4-yl)oxy]-2-hydroxycyclopentyl}methyl sulfamate]	< 10	> 0.5
Cn1c(-c2ccccc2)nc2ncnc(N[C@@H]3C[C@@H](COS(N)(=O)=O)[C@@H](O)C3)c21 [Compound I-36, {(1S,2S,4R)-2-hydroxy-4-[(7-methyl-8-phenyl-7H-purin-6-yl)-amino]cyclopentyl}methyl sulfamate]	< 10	> 0.5
NS(=O)(=O)OC[C@@H]1C[C@@H](Nc2ncnc3[nH]c(-c4ccccc4Oc4ccccc4)nc23)C[C@@H]1O [Compound I-37, ((1S,2S,4R)-2-hydroxy-4-{[8-(2-phenoxyphenyl)-9H-purin-6-yl]amino}-cyclopentyl)methyl sulfamate]		≤ 0.5
NS(=O)(=O)OC[C@@H]1C[C@@H](Nc2ncnc3[nH]c(-c4ccccc4)cc23)C[C@@H]1O [Compound I-38, {(1S,2S,4R)-2-hydroxy-4-[(6-phenyl-7H-pyrrolo[2,3-d]pyrimidin-4-yl)-amino]cyclopentyl}methyl sulfamate]		≤ 0.5
NS(=O)(=O)OC[C@@H]1C[C@@H](Nc2ncnc3[nH]c(-c4cccc5c4oc4ccccc45)nc23)C[C@@H]1O [Compound I-39, {(1S,2S,4R)-4-[(8-dibenzo[b,d]furan-4-yl-9H-purin-6-yl)amino]-2-hydroxycyclopentyl}methyl sulfamate]		≤ 0.5
NS(=O)(=O)OC[C@@H]1C[C@@H](Oc2cc(N[C@H]3CCCc4ccccc43)ncn2)C[C@@H]1O [Compound I-40, [(1S,2S,4R)-2-hydroxy-4-({6-[(1S)-1,2,3,4-tetrahydronaphthalen-1-ylamino]pyrimidin-4-yl}oxy)cyclopentyl]methyl sulfamate]		≤ 0.5
NS(=O)(=O)OC[C@@H]1C[C@@H](Nc2ncnc3[nH]c(-c4cccc5c4OCCO5)nc23)C[C@@H]1O [Compound I-41, ((1S,2S,4R)-4-{[8-(2,3-dihydro-1,4-benzodioxin-5-yl)-9H-purin-6-yl]amino}-2-hydroxycyclopentyl)methyl sulfamate]		≤ 0.5
NS(=O)(=O)OC[C@@H]1C[C@@H](Oc2cc(NCc3cccc4ccccc34)ncn2)C[C@@H]1O [Compound I-42, [(1S,2S,4R)-2-hydroxy-4-({6-[(1-naphthylmethyl)amino]pyrimidin-4-yl}-oxy)cyclopentyl]methyl sulfamate]		≤ 0.5
C[C@H]1Cc2ccccc2[C@H]1Nc1cc(O[C@@H]2C[C@@H](COS(N)(=O)=O)[C@@H](O)C2)ncn1 [Compound I-43, {(1S,2S,4R)-2-hydroxy-4-[(6-{[(1S,2S)-2-methyl-2,3-dihydro-1H-inden-1-yl]-amino}pyrimidin-4-yl)oxy]cyclopentyl}methyl sulfamate]		≤ 0.5
Cc1nc(N[C@H]2CCc3ccccc32)nc(N[C@@H]2C[C@H](COS(N)(=O)=O)[C@@H](O)[C@H]2O)n1 [Compound I-45, [(1R,2R,3S,4R)-4-({4-[(1S)-2,3-dihydro-1H-inden-1-ylamino]-6-methyl-1,3,5-triazin-2-yl}amino)-2,3-dihydroxycyclopentyl]methyl sulfamate]		≤ 0.5
